According to patent US4309428A, “Maytansinoids” (Takeda Chemical Industries, Ltd., priority 1979, dated 1982):
Values after ≈ are worked out from the molar mass of the structure shown. Where two headings read alike, the source gives them in different places.

Columns and labels:
Tetrahymena pyriformis W = assay: Antiprotozoal activity, serial dilution method; format: cell-based
Experimental: Antiprotozoal activity of compound (I) was assayed with Tetrahymena pyriformis W as the test organism and a medium composed of 20 g tryptose-peptone (Difco Co.), 1 g yeast extract, 2 g glucose, 1000 ml distilled water, 10 ml 1 M phosphate buffer (pH 7.0) as the assay medium. The microorganism was incubated at 28° C. for 44 to 48 hours and the growth inhibitory activity of compound (I) was assayed by the serial dilution method.

[1] = test system: melanoma B-16 tumor cells; assay: Antitumor activity: life span prolongation in mice with intraperitoneally transplanted melanoma B-16 (NCI protocol); format: in vivo; conditions: intraperitoneally once daily for 9 days
Experimental: Therapeutic tests were carried out in mice according to NCI-protocol 1,300, Cancer Chemother, Reports, Part 3, 1972, Vol. 3, No. 2, in which melanoma B-16 tumor cells had been intraperitoneally transplanted, compound (I) being administered intraperitoneally once daily for 9 consecutive days.

[2] = 28° C., 44 to 48 hours, pH 7.0, read-out: Antiprotozoal activity MIC

CCOC(=O)CC(=O)COc1cc2cc(c1Cl)N(C)C(=O)CC(OC(=O)C(C)C)C1(C)OC1C(C)C1CC(O)(NC(=O)O1)C(OC)C=CC=C(C)C2 (centres unmarked) [C20 -γ-ethoxycarbonylacetonyl ether, PDM-3-C20 -γ-ethoxycarbonylacetonyl ether]
MIC (Tetrahymena pyriformis W; [2]): 4 µg/mL (≈ 5.34 µM)

COC1C=CC=C(C)Cc2cc(OCC(=O)c3ccccc3)c(Cl)c(c2)N(C)C(=O)CC(OC(=O)C(C)C)C2(C)OC2C(C)C2CC1(O)NC(=O)O2 (centres unmarked) [PDM-3-C20-phenacylether, PDM-3-C20-phenacyl ether]
Antitumor activities B-16 (T/C %) ([1]; 50 μg/kg): 188% | Antitumor activities B-16 (T/C %) ([1]; 100 μg/kg): 176% | Antitumor activities B-16 (T/C %) ([1]; 200 μg/kg): 211% | Antitumor activities B-16 (T/C %) ([1]; 400 μg/kg): 203%

CCOC(=O)COc1cc2cc(c1Cl)N(C)C(=O)CC(OC(=O)C(C)C)C1(C)OC1C(C)C1CC(O)(NC(=O)O1)C(OC)C=CC=C(C)C2 (centres unmarked) [C20 -ethoxycarbonylmethyl ether, PDM-3-C20-ethoxycarbonylmethyl ether]
MIC (Tetrahymena pyriformis W; [2]): 1 to 2 µg/mL (≈ 1.41 to 2.83 µM)

CCOC(COc1cc2cc(c1Cl)N(C)C(=O)CC(OC(=O)C(C)C)C1(C)OC1C(C)C1CC(O)(NC(=O)O1)C(OC)C=CC=C(C)C2)OCC (stereo not drawn) [PDM-3-C20-(β,β-diethoxy)ethyl ether, PDM-3-C20 -β,β-diethoxyethyl ether]
Antitumor activities B-16 (T/C %) ([1]; 25 μg/kg): 194% | Antitumor activities B-16 (T/C %) ([1]; 50 μg/kg): 211% | Antitumor activities B-16 (T/C %) ([1]; 100 μg/kg): 240%

CCOc1cc2cc(c1Cl)N(C)C(=O)CC(OC(=O)C(C)C)C1(C)OC1C(C)C1CC(O)(NC(=O)O1)C(OC)C=CC=C(C)C2 (centres unmarked) [C20 -ethoxy ether, PDM-3-C20-ethyl ether]
MIC (Tetrahymena pyriformis W; pH 7, read-out: Antiprotozoal activity MIC): ≤ 1 µg/mL

C=CCOc1cc2cc(c1Cl)N(C)C(=O)CC(OC(=O)C(C)C)C1(C)OC1C(C)C1CC(O)(NC(=O)O1)C(OC)C=CC=C(C)C2 (centres unmarked) [C20 -allyl ether, PDM-3-C20-allyl ether]
MIC (Tetrahymena pyriformis W; [2]): ≤ 1 µg/mL

COC1C=CC=C(C)Cc2cc(OCC(=NNC(=O)c3ccncc3)c3ccccc3)c(Cl)c(c2)N(C)C(=O)CC(OC(=O)C(C)C)C2(C)OC2C(C)C2CC1(O)NC(=O)O2 (centres unmarked) [PDM-3-C20-(2-isonicotinoylhydrazono-2-phenyl)ethyl ether]
MIC (Tetrahymena pyriformis W; [2]): 2 to 4 µg/mL (≈ 2.33 to 4.66 µM)

CCOCCOCCOc1cc2cc(c1Cl)N(C)C(=O)CC(OC(=O)C(C)C)C1(C)OC1C(C)C1CC(O)(NC(=O)O1)C(OC)C=CC=C(C)C2 (centres unmarked) [C20-2-(2-ethoxyethoxy)ethyl ether, PDM-3-C20-2-(2-ethoxyethoxy)ethyl ether]
MIC (Tetrahymena pyriformis W; [2]): 2 µg/mL (≈ 2.71 µM)

COC1C=CC=C(C)Cc2cc(OCc3ccccc3)c(Cl)c(c2)N(C)C(=O)CC(OC(=O)C(C)C)C2(C)OC2C(C)C2CC1(O)NC(=O)O2 (centres unmarked) [PDM-3-C20-benzylether, PDM-3-C20-benzyl ether]
Antitumor activities B-16 (T/C %) ([1]; 25 μg/kg): 182% | Antitumor activities B-16 (T/C %) ([1]; 50 μg/kg): 220% | Antitumor activities B-16 (T/C %) ([1]; 100 μg/kg): 234% | MIC (Tetrahymena pyriformis W; [2]): ≤ 1 µg/mL
